Compound	melting point
Cc1cccc2c1nc(C(C)C)n2Cc1c(F)cccc1F	151 to 153 °C
CC(C)(C)n1nc(Cc2ccccc2)c(C#N)c1N	106 to 110 °C
c1ccc(CNc2ccc3ccccc3c2-c2c(P(c3ccccc3)c3ccccc3)ccc3ccccc23)cc1	70.1 °C
Cc1cc(CN(Cc2cc(C(F)(F)F)cc(C(F)(F)F)c2)c2nnn(C)n2)c(N(CC2CC2)CC2CC2)nc1C	103 °C
CC12CC(=O)C3C(CCC4CC(O)CCC43C)C1CCC2C(=O)CCN1C(=O)c2ccccc2C1=O (stereo unspecified)	187 to 189 °C
O=c1cc(-c2ccc(OC3CCN(C4CCC4)CC3)cc2)cn[nH]1	296 to 298 °C
COc1cc(CCC#N)c(Br)cc1OCc1ccccc1	52 to 53 °C
CS(=O)(=O)c1ccc(-n2nc(C(F)(F)F)cc2-c2ccc(-c3cscn3)cc2)cc1	168 to 170 °C
CC1=CC2CC(O)CCC2(C)C2=C1C1CCC(C(C)CCCC(C)C)C1(C)CC2 (stereo unspecified)	112 to 113 °C
OCCCSc1csc2ccccc12	154 to 155 °C
CCn1c(Oc2ccc(F)cc2)nnc1[C@@H](C)N(C)S(=O)(=O)c1ccc(Cl)c(Cl)c1	126 °C
N#Cc1ccc(C2(Cc3ccccc3)C(=O)N(CC3CC3)Cc3cncn32)cc1 (stereo unspecified)	156 to 158 °C
CCCn1c(-c2ccc(-n3ccnc3)cc2)cnc1[C@H](Cc1ccccn1)N(C=O)c1cc2cc(F)ccc2o1	77 to 81 °C
CC#CCOc1ccc(S(=O)(=O)C2(C(=O)O)CCN(Cc3ccc(Cl)c(Cl)c3)CC2)cc1	213 °C
CCCSc1nc(N)n(-c2nnc(-c3ccccc3O)s2)n1	195 to 198 °C
CC(=O)Nc1c2c(cc3c1CCC3)CCC2	257 to 259 °C
Cn1nnc(CC[C@H]2CC[C@@H](c3ccc(F)cc3)N2S(=O)(=O)c2ccc(Cl)cc2)n1 (racemic)	122 °C
CCCC(CCC)n1nnc2c(Oc3c(Br)cc(C(C)C)cc3OC)nc(C)nc21	129 to 131 °C
NCC1COc2cc(F)cc(-c3ccccc3Cl)c2N1 (stereo unspecified)	86 °C
N#CCCCOc1ccc(-c2nnc(CSCCOc3ccccc3)o2)cc1	67 to 68 °C

Compound	melting point
O=C(c1ccc([N+](=O)[O-])cc1)c1ccc2[nH]c(=O)sc2c1	148 to 152 °C
Nc1nc(N)c2cc(CCc3ccccc3)ccc2n1	178 to 180 °C
NC(=CC(=O)c1ccccn1)C1CC1	145 to 150 °C
COc1ccc(C2CCCCC2)cc1-c1csc(NC(=O)N2CCN(C(=O)C3CCOCC3)CC2)n1	276 °C
CS(=O)(=O)c1cccc(NC(=O)c2cnn3c(C4CC4)cc(-c4ccc(Cl)cc4)nc23)c1	235 to 238 °C
O=S1(=O)NC(C2CCCCC2)Nc2ccc(-c3cccc(O)c3)cc21 (stereo unspecified)	238 to 246 °C
COc1ccc(Nc2ccn(-c3ccccc3)n2)cc1	96 to 98 °C
OC(Cn1cncn1)(c1ccc(F)cc1F)C(c1ccc(OCc2ccccc2)cc1)n1cncn1 (stereo unspecified)	144 to 147 °C
CS(=O)(=O)c1ccc(C(CC2CCC(=O)C2)C(=O)O)cc1Cl (stereo unspecified)	164 to 167 °C
COc1cccc(CC(=O)O)c1OCCCc1cn(-c2ccc(C(F)(F)F)cn2)nc1C(C)C	142 to 143 °C
O=C1c2ccc(Cl)cc2C(=O)N1c1ccccc1	187 to 189 °C
Cc1ccccc1NC(=O)c1ccc(C(=O)N2Cc3cccn3Cc3ccccc32)cc1	228 to 231 °C
O=C(CCO)N[C@H]1CC[C@H](CCN2CCC(c3cccc4c3CCO4)CC2)CC1	158 °C
C#Cc1cnn2c(C(F)(F)F)cc(-c3cccc(C(F)(F)F)c3)nc12	154 °C
CC(=O)OC1CSC(Oc2c(C)ccnc2Cl)C(OC(C)=O)C1OC(C)=O (stereo unspecified)	144 °C
Nc1cc(C(=O)O)cc(OCc2ccccc2)c1Cc1ccccc1	208 to 210 °C
COCCOc1ccc(CCCOC(=O)NS(=O)(=O)c2ccc(Cl)cc2)c(Oc2ncc(C(F)(F)F)cc2Cl)c1	147 to 150 °C
COc1ccc(Cn2nnnc2C(=O)Nc2cc(OCCCOc3ccc(C(C)=O)c(O)c3CCC(F)(F)F)c(Br)cc2C)cc1	140 to 142 °C
COc1ccc2c(c1)CCN(C#N)C2c1cc(OC)c(OC)c(OC)c1 (single isomer, unassigned; (-))	132 to 134 °C
CNC(=O)c1ccc(N2CCN(Cc3cnc4c(c3)[nH]c(=O)n3cccc43)CC2)cc1	286 to 289 °C

Compound	melting point
CC(C)(C)c1cc(C(N)=O)cc(C(C)(C)C)c1O	263 to 265 °C
N#CC1=C(NN)C(=O)NC1=O	> 350 °C
O=C1c2cccc(F)c2C(=O)N1CCN1CCC(c2noc3cc(F)ccc23)CC1	142 to 143 °C
CC1(C)CCC(C)(C)c2cc(OCc3ccc(C=O)cc3)ccc21	102 to 104 °C
c1ccc(C(c2ccc3[nH]nnc3c2)n2cncn2)cc1 (stereo unspecified)	183 °C
Clc1ncc(-c2ccccc2)o1	34 °C
CCOc1ccc(C2=CC(C)(C)Oc3c(OCC)cc(Cc4cnc(N)nc4N)cc32)cc1	186 to 188 °C
COc1c(C(C)C)cc(S(N)(=O)=O)c(C)c1C(=O)NCC1CCCN1C1CCCC1 (stereo unspecified)	196 °C
CCCCCc1ccc(CC(=O)c2ccc(O)cc2)cc1	112 °C
Clc1ccc(O[C@@H]2CCNC[C@H]2c2ccccc2)cc1 (relative stereo)	102 to 103 °C
Cc1oc(-c2ccc(C(F)(F)F)cc2)nc1-c1ccc(Br)cc1	82.8 °C
N#Cc1nn(-c2c(Cl)cc(C(F)(F)F)cc2Cl)c(N)c1-c1ccc(F)c(Cl)c1	197 to 198 °C
O=C(O)C1CSC(Cc2ccccc2)N1 (mixture of isomers)	200 °C
Cc1[nH]cnc1CN1CC2COc3ccccc3N2C1=O (stereo unspecified)	212 to 216 °C
CC(C)NC(=O)N1CCc2[nH]cnc2C1C(C)C (stereo unspecified)	202 °C
CC(=O)Nc1cccc(-c2ccnc3c(C(=O)c4cccs4)cnn23)c1	245 to 247 °C
O=C(NCCCCCn1cnc2cnc3ccccc3c21)c1ccccc1	172 °C
CC1OC(Cn2cncn2)(c2ccccc2)C1(C)C (stereo unspecified)	102 °C
CC1(C(=O)O)CC1(F)F (stereo unspecified)	59 to 61 °C
Nc1c(Cl)cc(C(O)CNCCCCCCOCCCCCCc2cnccn2)cc1Cl (stereo unspecified)	60 to 63 °C

Now from value to compound:

melting point	Compound
158 to 160 °C	C=C(C)COc1ccc2c(C)cc(=O)oc2c1C(=O)C=Cc1ccccc1
248 to 250 °C	CCOC(=O)c1ncn2c1CNc1ccccc1-2
182 °C	O=C(O)c1csnc1-c1ccc(Cl)cc1
230 °C	O=C(O)Cc1cc(C(=O)Cc2ccccc2Cl)ccc1O
> 250 °C	COc1nccc2c1C(C)(O)c1c([nH]c3ccncc13)C2(C)O (stereo unspecified)
80 to 85 °C	CC(O)c1ccc(Oc2ccc(NC(=O)Nc3cc(C(C)(C)C)on3)cc2)cc1 (stereo unspecified)
> 300 °C	CNC(=O)Nc1ccc(-c2c[nH]c(=O)cn2)cc1
208 °C	CC(C)(C)C1=NN(c2ccc(C(=O)O)cc2)C(c2ccc(Cl)cc2)C1 (stereo unspecified)
175 to 177 °C	O=C(O)C1CCc2cc(O)ccc2O1 (racemic)
246 °C	CCOC(=O)CC1=NN(c2ccc(C(=O)O)cc2)C(=O)C1
66 °C	CNC(=O)[C@@H]1C=CCN1S(=O)(=O)c1ccc(Cl)c(CBr)c1Cl
276 to 278 °C	O=C(Nc1ccc(Br)cc1)Nn1cnc2c(O)cccc2c1=O
80 to 81 °C	C=Cc1cc2cc(OC)ccc2[nH]1
166 to 169 °C	Cc1cc(-c2nnn(C)n2)cc(C)c1OCCCC(O)c1cc2cccnc2[nH]1 (stereo unspecified)
186 °C	COC(=O)c1ccc(C=CC(=O)N2CCc3c([nH]c4ccccc34)C2c2ccc3c(c2)CCO3)cc1 (stereo unspecified)
310 to 312 °C	Cc1nc(=O)[nH]c2cc3c(cc12)OCO3
244 to 247 °C	Cc1cc(O)ccc1-c1c(C=O)sc(-c2ccc(O)cc2)c1C
157 to 159 °C	Cc1oc(-c2ccccc2)nc1COc1ccc(CN(O)C(N)=O)cc1
100 to 102 °C	CCOC(=O)C(C)OCc1cc2nc(Cl)ccc2n1S(=O)(=O)c1ccc2nc(NC(C)=O)sc2c1 (stereo unspecified)
155 to 156 °C	Cc1cc2c(c(-c3cc(Cl)ccc3Cl)c1)OC(CN)C2 (stereo unspecified)
158 to 161 °C	CCCOc1ccccc1-c1ccc(N)c(=O)[nH]1

melting point	Compound
167 to 172 °C	CCCCn1c(S)nc2ccccc2c1=O
215 to 217 °C	COC(=O)c1ccc(OC(=O)c2cccc(C(=O)Oc3ccc(C(=O)OC)cc3)c2)cc1
62 to 65 °C	CCOc1ccccc1OS(N)(=O)=O
140 to 142 °C	COCn1nc(N)c2cc(S(=O)(=O)C(C)C)cc(OCCc3ccccn3)c21
112 °C	Cc1c(Cl)cccc1S(=O)O
40 to 41 °C	COC(=O)c1coc2ccc(C)cc12
> 300 °C	O=c1cc2c(n[nH]1)CCc1cc(O)ccc1-2
169 to 170 °C	CNc1nnc(-c2ccc3occ(-c4cccc(OC(F)(F)F)c4)c3c2)o1
123 to 125 °C	CCOC(=O)C1(NS(=O)(=O)c2ccc3c(Cl)cnc(Cl)c3c2)CCC1
179 to 180 °C	COc1ccc(CNc2nnc(Cl)c3cc([N+](=O)[O-])ccc23)cc1Cl
112 to 113 °C	CCC1(CCCCCl)C(=O)Nc2c(C)cccc21 (stereo unspecified)
136 to 138 °C	CCC(CC)N1CCC(CNc2ccc(Cl)cc2C(=O)Nc2ccc(Cl)cn2)CC1
160 °C	N#Cc1ccc(OCCCCC(=O)O)cc1
139 to 150 °C	O=C(O)C1CCSc2ccc(Cl)cc21 (stereo unspecified)
116 to 117 °C	CCC(=O)NC1=C(OCCOC)C(=O)c2ccccc2C1=O
124 to 125 °C	Cc1ccccc1-c1cccc(C=CC(=O)O)c1
183 to 185 °C	Cc1c(NC(=O)CC(C)(C)C)c(C)c2c(c1-c1ccoc1)OCC2c1ccc(C(C)C)cc1 (stereo unspecified)
62 to 63 °C	COC(=O)c1ccc2c(c1)OC(C)(C)C(=O)N2C(C)C
97 to 100 °C	C=C(C)COc1ccc(C(=O)C=Cc2cccc(OC)c2)c(O)c1
187 to 188 °C	CC1=C(C(=O)OC(C)(C)C)C(c2ccc(Br)cc2F)C(C(=O)OC(C)(C)C)=C(C)N1

Reference: a melting point compilation (Tetko et al.; mined from patent text by program, amines drawn as free bases though some values may be those of a salt)
